Assay in all cases: NCI SRB growth inhibition (single dose 10 µM / five-dose)
Holding throughout (format): cell-based, human

In one test the test system is OVCAR-4. The following applies: Homo sapiens; OVCAR-4 (Ovarian cancer), 10 µM; read-out: GI%. The essentials:
(§1)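 Three dose–response parameters were calculated per compound, among them TGI, defined at Ti = Tz. Percentage growth came from SRB absorbance normalised to time-zero and control wells, with negative values indicating cell kill below Tz.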

For the next test, the system named is HCT-116. Conditions: Homo sapiens, HCT-116; read-out: GI%. The essentials: as §1
The subject of another test is SW-620. Conditions: Homo sapiens; SW-620 (Colon cancer), 10 µM; read-out: GI%. The essentials: as §1
Another test relates to UACC-62. The following applies: Homo sapiens; UACC-62 (Melanoma), 10 µM; read-out: GI%. The essentials:
as §1

In the next test the test system is MDA-MB-435. Conditions: Homo sapiens; MDA-MB-435 (Melanoma), 10 µM; read-out: GI%. The essentials: as §1
The test system of a further test is RXF 393. The following applies: Homo sapiens; RXF 393 (Renal cancer), 10 µM; read-out: GI%. Summed up: as §1
In another test the test system is SF-539. The following applies: Homo sapiens; SF-539 (CNS cancer), 10 µM; read-out: GI%. The essentials: as §1
Another test has as its system SK-OV-3. Conditions: Homo sapiens; SK-OV-3 (Ovarian cancer), 10 µM; read-out: GI%. The essentials: as §1
The subject of another test is NCI/ADR-RES. The following applies: Homo sapiens; NCI/ADR-RES (Ovarian cancer), 10 µM; read-out: GI%. Summed up: as §1
Another test has as its system TK-10. Conditions: Homo sapiens; TK-10 (Renal cancer), 10 µM; read-out: GI%. Summed up: as §1
A further test deals with MALME-3 M. The following applies: Homo sapiens; MALME-3 M (Melanoma), 10 µM; read-out: GI%. The essentials:
as §1

For the next test, the system named is 786–0. The following applies: Homo sapiens; 786–0 (Renal cancer), 10 µM; read-out: GI%. The essentials: as §1
Another test has as its system SK-MEL-28. Conditions: Homo sapiens; SK-MEL-28 (Melanoma), 10 µM; read-out: GI%. Summed up:
as §1

In the next test the test system is K-562. The following applies: Homo sapiens, K562; K-562 (Leukemia), 10 µM; read-out: GI%. Summed up: as §1
The subject of a further test is OVCAR-3. The following applies: Homo sapiens; OVCAR-3 (Ovarian cancer), 10 µM; read-out: GI%. The essentials: as §1
In a further test the test system is SF-295. The following applies: Homo sapiens; SF-295 (CNS cancer), 10 µM; read-out: GI%. Summed up:
as §1

A further test deals with SK-MEL-5. Conditions: Homo sapiens; SK-MEL-5 (Melanoma), 10 µM; read-out: GI%. The essentials:
as §1

In another test the test system is M14. The following applies: Homo sapiens; M14 (Melanoma), 10 µM; read-out: GI%. The essentials:
as §1

A further test concerns UO-31. Conditions: Homo sapiens; UO-31 (Renal cancer), 10 µM; read-out: GI%. The essentials:
as §1

A further test deals with IGROV1. Conditions: Homo sapiens, IGROV-1; IGROV1 (Ovarian cancer), 10 µM; read-out: GI%. Summed up: as §1
The test system of a further test is RPMI-8226. Conditions: Homo sapiens; RPMI-8226 (Leukemia), 10 µM; read-out: GI%. Summed up:
as §1

The subject of the next test is NCI-H226. Conditions: Homo sapiens; NCI-H226 (Non-small cell lung cancer), 10 µM; read-out: GI%. Summed up: as §1
The next test concerns T-47D. The following applies: Homo sapiens, T47D; T-47D (Breast cancer), 10 µM; read-out: GI%. Summed up: as §1

Structures are written as SMILES.

Regarding `O=C(NN=Cc1cccc(O)c1)c1ccc2[nH]c(-c3ccc(Cl)cc3)nc2c1` [8p, 2-(4-Chlorophenyl)-N'-(3-hydroxybenzylidene)-1H-benzo[d]imidazole-5-carbohydrazide], the inhibition at 10 µM with OVCAR-4 amounted to 15.7%; in the test on HCT-116 it was 37.7%; in the test on SW-620 it was 6.31%; with UACC-62, 19.6%; with MDA-MB-435, 15.2%; with RXF 393, 31.6%. The inhibition at 10 µM in the test on SF-539 is 32.4%; in the test on SK-OV-3, 36.2%; with NCI/ADR-RES it was less than 5%; with TK-10, less than 5%; with MALME-3 M it was 58.9%; in the test with 786–0, 22.2%. For the same compound, the inhibition at 10 µM in the test with SK-MEL-28 is 16%; with K-562, 49.9%; in the test on OVCAR-3, less than 5%; with SF-295, 11.8%; in the test with SK-MEL-5, 69.5%; with M14, 25.4%. For the same compound, the inhibition at 10 µM with UO-31 is 14.9%; with IGROV1, 5.71%; with RPMI-8226, 56.7%; with NCI-H226, 30.1%; in the test on T-47D it was 79.8%.
For the compound `COc1ccc(C=NNC(=O)c2ccc3[nH]c(-c4ccc(Cl)cc4)nc3c2)cc1O` [8s, 2-(4-Chlorophenyl)-N'-(3-hydroxy-4-methoxybenzylidene)-1H-benzo[d]imidazole-5-carbohydrazide], the inhibition at 10 µM amounted to 20.8% with OVCAR-4; 69.5% in the test on HCT-116; 69.6% with SW-620; 37.5% in the test with UACC-62; 89.9% with MDA-MB-435; 69.1% with RXF 393. For the same compound, the inhibition at 10 µM is 47.2% in the test with SF-539; less than 5% in the test with NCI/ADR-RES; less than 5% in the test on TK-10; greater than 100% in the test with MALME-3 M; 52% with 786–0; 70.8% with SK-MEL-28. For the same compound, the inhibition at 10 µM in the test on K-562 turned out to be 50.3%; with OVCAR-3, 47.5%; in the test on SF-295, 85%; in the test with SK-MEL-5, 53.3%; with M14 it was 42.1%; in the test on UO-31, 8.7%. Also, the inhibition at 10 µM in the test with IGROV1 was less than 5%; with RPMI-8226 it was greater than 100%; with NCI-H226 it was 37.6%.
With `COc1ccc(OC)c(C=NNC(=O)c2ccc3[nH]c(-c4ccccc4)nc3c2)c1` [8f, N'-(2,5-Dimethoxybenzylidene)-2-phenyl-1H-benzo[d]imidazole-5-carbohydrazide], the inhibition at 10 µM worked out at 37.8% in the test on OVCAR-4; 52.5% with HCT-116; 30.3% with SW-620; 35.5% in the test on UACC-62; 73.7% with MDA-MB-435; 50% in the test on RXF 393. In addition, the inhibition at 10 µM was 36.9% in the test on SF-539; 24.5% in the test with NCI/ADR-RES; 19% in the test on TK-10; 40.5% in the test with MALME-3 M; 18.6% with 786–0; 29.1% with SK-MEL-28. Moreover, the inhibition at 10 µM was found to be 63% in the test with K-562; 12.5% in the test with OVCAR-3; 31.4% with SF-295; 67.8% in the test with SK-MEL-5; 34.4% with M14; 54% with UO-31. For the same compound, the inhibition at 10 µM with IGROV1 amounted to 11%; in the test with RPMI-8226, 81.3%; with NCI-H226, 49.5%.
For `COc1cc(C=NNC(=O)c2ccc3[nH]c(-c4ccccc4)nc3c2)cc(OC)c1OC` [8g, 2-Phenyl-N'-(3,4,5-trimethoxybenzylidene)-1H-benzo[d]imidazole-5-carbohydrazide], the inhibition at 10 µM in the test with OVCAR-4 stood at 21.9%; in the test on HCT-116, 41.6%; with SW-620, 37.9%; in the test on UACC-62, 70.4%; with MDA-MB-435, 48.5%; in the test with RXF 393, 30.8%. In addition, the inhibition at 10 µM is 49.8% in the test on SF-539; less than 5% in the test on NCI/ADR-RES; 6.66% in the test on TK-10; 73.6% in the test on MALME-3 M; 27.8% in the test on 786–0; 40.4% in the test on SK-MEL-28. For the same compound, the inhibition at 10 µM with K-562 is 30.4%; in the test on OVCAR-3, 29.4%; with SF-295 it was 54.1%; with SK-MEL-5, 89.3%; in the test with M14, 43.3%; with UO-31 it was 45.5%. In addition, the inhibition at 10 µM was 17% with IGROV1, 86.9% in the test with RPMI-8226 and 50.4% in the test with NCI-H226.

Values taken from publication PMC10893631, “Receptor-based pharmacophore modeling, molecular docking, synthesis and biological evaluation of novel VEGFR-2, FGFR-1, and BRAF multi-kinase inhibitors” (BMC Chemistry, 2024).
